Data as given in patent US20230270653A1, “USE OF TREHALOSE FOR INHIBITING AILMENT INDUCING MICROORGANISMS” (Conopco, Inc., d/b/a UNILEVER, priority 2020, published 2023).

Experiments:
[1] = system: M. restricta; assay: Overlay assay, Log10 reduction (Kill) of M. restricta; assay type: cell-based, Malassezia restricta
Description: (§1) Staphylococcus hominis (S. hominis, ATCC 27844), Cutibacterium acnes (C. acnes, ATCC6919), Staphylococcus aureus (S. aureus, ATCC 6538), and Malassezia restricta (M. restricta, ATCC 7877) were inoculated from freezer stock onto agar plates according to culture conditions as shown in table 1. Then, one loop of microbes from agar plate was inoculated into a liquid culture system according to the culture condition as shown in table 1. M. restricta were reinoculated on MLNA plate twice before use. Cell density of bacteria (S. hominis, C. acnes and S. aureus) was adjusted to concentration at 10^8 cfu/mL for further use based on absorption at 600 nm. Cell density of M. restricta was adjusted to concentration at 10^8 cfu/mL for further use based on absorption at 610 nm.
(§2) On Day 0, 15 mL of TSA containing (1) 2% Trehalose and 10^6 cfu/ml S. hominis, (2) 10^6 cfu/ml S. hominis alone (without trehalose), and (3) 2% trehalose alone (without S. hominis) was solidified in a […] petri dish and cultured at 37° C. for four days. TSA agar without S. hominis nor trehalose was prepared in parallel as control. […]
(§3) At the end, Log10 reduction (Kill) were determined for the targeted microorganisms, M. restricta and S. aureus on plate (1), (2), and (3) as compared to the respective M. restricta or S. aureus growth on control plate

[2] = system: S. aureus; assay: Overlay assay, Log10 reduction (Kill) of S. aureus; assay type: cell-based, Staphylococcus aureus
Description: as §1, §2, §3

OC[C@H]1O[C@H](O[C@H]2O[C@H](CO)[C@@H](O)[C@H](O)[C@H]2O)[C@H](O)[C@@H](O)[C@@H]1O [A, trehalose]
Log10 reduction (Kill) of M. restricta ([1]; TSA plate cultured at 37° C. for four days, MLNA overlay, serially diluted M. restricta (ATCC 7877) dotted on, compared to growth on control plate): 0

OC[C@H]1O[C@H](O[C@H]2O[C@H](CO)[C@@H](O)[C@H](O)[C@H]2O)[C@H](O)[C@@H](O)[C@@H]1O [C, trehalose]
Log10 reduction (Kill) of S. aureus ([2]; TSA plate cultured at 37° C. for four days, TSA overlay, serially diluted S. aureus (ATCC 6538) dotted on, compared to growth on control plate): 1

OC[C@H]1O[C@H](O[C@H]2O[C@H](CO)[C@@H](O)[C@H](O)[C@H]2O)[C@H](O)[C@@H](O)[C@@H]1O [Trehalose]
effectiveness against Staphylococcus aureus ([2]; in the presence of S. hominis, conclusion from Table 4): effective | effectiveness against Malassezia restricta ([1]; in the presence of S. hominis, conclusion from Table 3): effective
